Source: paper PMC6920703, “Measuring glycolytic flux in single yeast cells with an orthogonal synthetic biosensor” (Molecular Systems Biology, 2019)

Target: T1, wild-type CggR (Bacillus subtilis, UniProt O32253)
T1 sequence (O32253 1-340): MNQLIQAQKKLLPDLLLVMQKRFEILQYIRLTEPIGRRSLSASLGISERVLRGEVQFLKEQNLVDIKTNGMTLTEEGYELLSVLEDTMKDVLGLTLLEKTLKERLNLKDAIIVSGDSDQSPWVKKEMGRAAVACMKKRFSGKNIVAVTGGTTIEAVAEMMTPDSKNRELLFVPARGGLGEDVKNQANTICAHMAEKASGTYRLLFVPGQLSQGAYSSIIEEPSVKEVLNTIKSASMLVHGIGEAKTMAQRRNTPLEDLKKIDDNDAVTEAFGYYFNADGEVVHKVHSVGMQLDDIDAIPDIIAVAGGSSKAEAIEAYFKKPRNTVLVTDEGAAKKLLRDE
Assay: Thermal shift assay of purified CggR with SYPRO Orange and 0-36 mM FBP (20 to 99 °C in 0.5 °C steps, NaCl counter-ion controls), no DNA; KD from fitting Tm data to a simple cooperative binding model in GraphPad.
Source text: We generated these CggR mutants with site‐directed mutagenesis, expressed in E. coli, purified, and biochemically characterized them. To this end, we used thermal shift assays to assess protein stability and ligand binding.
Figure 5 Biochemical characterization of CggR and respective mutants • Thermal shift assays were used to determine the melting curves of wild‐type CggR and mutants. Error bars correspond to the standard deviation of at least five replicates. • CggR‐FBP affinity constants (KD's) of the wild type and mutant variants, determined by fitting a simple cooperative binding model to the melting curves data. Error bars indicate the 95% confidence intervals. • Quantification of CggR binding to DNA. The CggR bound to DNA fraction was calculated by dividing the intensity of the protein–DNA complex band by the total DNA. The background‐subtracted total intensities of the CggR–DNA complex and the free‐DNA bands were assessed with ImageJ. Error bars correspond to the standard deviation of three replicate experiments for the mutants and six for the wild type. • Summary of the biochemical characterization of the wild type and mutant CggR variants. […]
The K D of the wild type and mutant CggR variants was calculated by fitting the T m data into a simple cooperative model using the GraphPad software.

`O=P(O)(O)OC[C@H]1OC(O)(COP(=O)(O)O)[C@@H](O)[C@@H]1O` (stereo partly shown) [FBP, fructose-1,6-bisphosphate] showed a Kd of 1000 µM.
